Results as given in ChEMBL document CHEMBL2169741, “Analysis of the discriminative inhibition of mammalian digestive lipases by 3-phenyl substituted 1,3,4-oxadiazol-2(3H)-ones” (Eur J Med Chem, 2012).
Calls of active or inactive are those of the source. No cut-off for these calls is given here.

Experiments:
[1] = target: T1, Pancreatic triacylglycerol lipase (Homo sapiens) (UniProt P16233); test: Inhibition of recombinant HPL expressed in Pichia pastoris at 400 molar excess after 30 mins in presence of NaTDC
T1 sequence (whole entry): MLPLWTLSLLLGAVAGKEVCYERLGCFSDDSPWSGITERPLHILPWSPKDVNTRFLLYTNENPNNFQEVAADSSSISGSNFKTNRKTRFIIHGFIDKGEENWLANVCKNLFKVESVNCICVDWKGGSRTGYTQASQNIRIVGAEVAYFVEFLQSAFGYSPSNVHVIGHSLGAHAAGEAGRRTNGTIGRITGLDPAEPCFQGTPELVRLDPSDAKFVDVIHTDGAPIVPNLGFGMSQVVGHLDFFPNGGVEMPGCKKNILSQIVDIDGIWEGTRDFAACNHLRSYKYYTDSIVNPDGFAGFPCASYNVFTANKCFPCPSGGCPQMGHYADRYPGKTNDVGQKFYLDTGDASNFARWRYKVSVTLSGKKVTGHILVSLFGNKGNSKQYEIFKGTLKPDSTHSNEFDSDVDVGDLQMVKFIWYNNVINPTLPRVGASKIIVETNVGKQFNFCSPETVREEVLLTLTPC

[2] = target: T2, Bile salt-activated lipase (Homo sapiens) (UniProt P19835); test: Inhibition of human pancreatic CEH assessed as half inactivation time at 4 molar excess
T2 sequence (whole entry): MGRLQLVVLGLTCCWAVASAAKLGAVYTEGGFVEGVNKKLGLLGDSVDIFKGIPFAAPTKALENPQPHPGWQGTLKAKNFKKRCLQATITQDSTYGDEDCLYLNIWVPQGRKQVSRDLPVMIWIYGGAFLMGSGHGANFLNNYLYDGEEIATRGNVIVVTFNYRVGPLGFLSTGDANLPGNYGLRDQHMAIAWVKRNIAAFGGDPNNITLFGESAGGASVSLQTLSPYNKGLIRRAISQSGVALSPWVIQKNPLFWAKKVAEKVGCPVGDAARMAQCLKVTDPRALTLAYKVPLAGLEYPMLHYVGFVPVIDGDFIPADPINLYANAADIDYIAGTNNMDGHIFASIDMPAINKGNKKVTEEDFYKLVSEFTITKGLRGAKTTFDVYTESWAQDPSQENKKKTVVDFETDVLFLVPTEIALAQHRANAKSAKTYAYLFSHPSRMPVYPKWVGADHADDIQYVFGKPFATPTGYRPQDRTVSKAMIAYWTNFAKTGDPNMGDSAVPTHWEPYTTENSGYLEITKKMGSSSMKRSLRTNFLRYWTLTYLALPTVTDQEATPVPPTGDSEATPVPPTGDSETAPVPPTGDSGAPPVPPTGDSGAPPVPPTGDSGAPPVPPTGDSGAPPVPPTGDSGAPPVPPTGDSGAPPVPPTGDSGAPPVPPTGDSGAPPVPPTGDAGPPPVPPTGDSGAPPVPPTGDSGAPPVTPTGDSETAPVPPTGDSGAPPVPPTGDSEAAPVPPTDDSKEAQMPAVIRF

[3] = target: T3, Pancreatic lipase-related protein 2 (Cavia porcellus) (UniProt P81139); test: Inhibition of recombinant GPLRP2 expressed in Aspergillus oryzae at 20 molar excess after 30 mins in presence of NaTDC
T3 sequence (whole entry): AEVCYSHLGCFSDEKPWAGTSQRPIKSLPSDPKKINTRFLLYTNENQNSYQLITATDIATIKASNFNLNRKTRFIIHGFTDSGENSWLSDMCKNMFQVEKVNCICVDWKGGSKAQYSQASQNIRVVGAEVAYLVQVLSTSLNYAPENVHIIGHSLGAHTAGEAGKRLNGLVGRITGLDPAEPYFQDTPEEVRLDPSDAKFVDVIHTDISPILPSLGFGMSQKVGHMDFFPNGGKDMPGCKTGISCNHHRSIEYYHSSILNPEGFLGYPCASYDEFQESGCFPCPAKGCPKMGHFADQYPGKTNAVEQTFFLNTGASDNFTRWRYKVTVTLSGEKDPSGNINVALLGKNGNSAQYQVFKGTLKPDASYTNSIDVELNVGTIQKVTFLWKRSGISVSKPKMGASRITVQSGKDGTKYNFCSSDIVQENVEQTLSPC

[4] = target: T2, Bile salt-activated lipase (Homo sapiens); test: Inhibition of human pancreatic CEH at 2 molar excess after 30 mins
[5] = target: T2, Bile salt-activated lipase (Homo sapiens); test: Inhibition of human pancreatic CEH at 20 molar excess after 30 mins
[6] = target: T4, Gastric triacylglycerol lipase (Canis lupus familiaris) (UniProt P80035); test: Inhibition of recombinant DGL expressed in transgenic maize assessed as half inactivation time at 20 molar excess in presence of NaTDC
T4 sequence (whole entry): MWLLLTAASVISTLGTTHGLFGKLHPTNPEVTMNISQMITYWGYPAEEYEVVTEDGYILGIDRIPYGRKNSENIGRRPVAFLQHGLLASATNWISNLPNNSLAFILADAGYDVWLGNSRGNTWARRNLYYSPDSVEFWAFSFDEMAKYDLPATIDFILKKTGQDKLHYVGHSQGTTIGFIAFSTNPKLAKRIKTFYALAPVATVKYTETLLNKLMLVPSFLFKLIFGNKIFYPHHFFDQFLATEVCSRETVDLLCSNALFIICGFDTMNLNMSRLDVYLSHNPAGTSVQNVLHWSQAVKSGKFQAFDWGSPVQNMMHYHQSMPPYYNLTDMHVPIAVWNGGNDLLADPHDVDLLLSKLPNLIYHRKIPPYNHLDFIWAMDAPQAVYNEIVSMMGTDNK

[7] = target: T5, Pancreatic lipase-related protein 2 (Homo sapiens) (UniProt P54317); test: Inhibition of recombinant HPLRP2 expressed in Pichia pastoris at 2 molar excess after 30 mins in presence of NaTDC
T5 sequence (whole entry): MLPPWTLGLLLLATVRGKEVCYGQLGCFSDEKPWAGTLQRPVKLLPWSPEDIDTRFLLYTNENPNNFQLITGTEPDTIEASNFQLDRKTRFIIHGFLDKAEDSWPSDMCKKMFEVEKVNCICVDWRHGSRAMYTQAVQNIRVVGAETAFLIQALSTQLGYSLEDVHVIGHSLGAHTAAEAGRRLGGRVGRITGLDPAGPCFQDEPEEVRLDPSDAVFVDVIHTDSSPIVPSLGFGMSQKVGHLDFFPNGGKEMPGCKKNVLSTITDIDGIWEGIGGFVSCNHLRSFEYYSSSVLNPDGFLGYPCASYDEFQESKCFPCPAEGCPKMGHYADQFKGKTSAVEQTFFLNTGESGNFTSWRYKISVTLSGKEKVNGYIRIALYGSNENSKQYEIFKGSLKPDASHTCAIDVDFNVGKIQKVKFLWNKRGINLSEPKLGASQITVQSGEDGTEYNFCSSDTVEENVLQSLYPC

[8] = target: T3, Pancreatic lipase-related protein 2 (Cavia porcellus); test: Inhibition of recombinant GPLRP2 expressed in Aspergillus oryzae assessed as half inactivation time at 2 molar excess in presence of NaTDC
[9] = target: T4, Gastric triacylglycerol lipase (Canis lupus familiaris); test: Inhibition of recombinant DGL expressed in transgenic maize assessed as hydrolysis of trybutyrin emulsion at 10 to 40 molar excess after 30 mins in presence of NaTDC
[10] = target: T4, Gastric triacylglycerol lipase (Canis lupus familiaris); test: Inhibition of recombinant DGL expressed in transgenic maize at 2 molar excess after 30 mins in presence of NaTDC
[11] = target: T1, Pancreatic triacylglycerol lipase (Homo sapiens); test: Inhibition of recombinant HPL expressed in Pichia pastoris at 100 molar excess after 30 mins in presence of NaTDC
[12] = target: T2, Bile salt-activated lipase (Homo sapiens); test: Inhibition of human pancreatic CEH after 30 mins
[13] = target: T5, Pancreatic lipase-related protein 2 (Homo sapiens); test: Inhibition of recombinant HPLRP2 expressed in Pichia pastoris after 30 mins in presence of NaTDC
[14] = target: T3, Pancreatic lipase-related protein 2 (Cavia porcellus); test: Inhibition of recombinant GPLRP2 expressed in Aspergillus oryzae at 2 molar excess after 30 mins in presence of NaTDC
[15] = target: T6, Pancreatic triacylglycerol lipase (Sus scrofa) (UniProt P00591); test: Inhibition of PPL after 30 mins in presence of NaTDC
T6 sequence (whole entry): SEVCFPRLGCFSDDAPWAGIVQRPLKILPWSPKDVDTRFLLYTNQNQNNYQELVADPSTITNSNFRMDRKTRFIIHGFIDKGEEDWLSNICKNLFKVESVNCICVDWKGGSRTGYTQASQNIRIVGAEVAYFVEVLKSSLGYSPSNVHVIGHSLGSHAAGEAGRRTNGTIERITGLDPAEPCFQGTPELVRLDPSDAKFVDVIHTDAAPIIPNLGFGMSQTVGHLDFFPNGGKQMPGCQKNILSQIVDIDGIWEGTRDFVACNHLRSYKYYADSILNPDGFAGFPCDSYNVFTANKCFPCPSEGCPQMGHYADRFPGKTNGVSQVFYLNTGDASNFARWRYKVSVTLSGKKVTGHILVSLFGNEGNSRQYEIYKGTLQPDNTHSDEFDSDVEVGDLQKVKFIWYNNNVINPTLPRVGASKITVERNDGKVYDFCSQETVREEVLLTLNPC

[16] = target: T1, Pancreatic triacylglycerol lipase (Homo sapiens); test: Inhibition of recombinant HPL expressed in Pichia pastoris assessed as half inactivation time at 100 molar excess in presence of NaTDC
Sus scrofa = species: Sus scrofa; test: Inhibition of porcine Pancrelipase at 400 molar excess after 30 mins
[17] = target: T6, Pancreatic triacylglycerol lipase (Sus scrofa); test: Inhibition of PPL at 100 molar excess after 30 mins in presence of NaTDC
[18] = target: T5, Pancreatic lipase-related protein 2 (Homo sapiens); test: Inhibition of recombinant HPLRP2 expressed in Pichia pastoris at 20 molar excess after 30 mins in presence of NaTDC
[19] = target: T4, Gastric triacylglycerol lipase (Canis lupus familiaris); test: Inhibition of recombinant DGL expressed in transgenic maize at 20 molar excess after 30 mins in presence of NaTDC
[20] = target: T6, Pancreatic triacylglycerol lipase (Sus scrofa); test: Inhibition of PPL assessed as half inactivation time at 100 molar excess in presence of NaTDC
[21] = target: T5, Pancreatic lipase-related protein 2 (Homo sapiens); test: Inhibition of recombinant HPLRP2 expressed in Pichia pastoris assessed as half inactivation time at 5 molar excess in presence of NaTDC
[22] = target: T6, Pancreatic triacylglycerol lipase (Sus scrofa); test: Inhibition of PPL at 400 molar excess after 30 mins in presence of NaTDC
[23] = target: T4, Gastric triacylglycerol lipase (Canis lupus familiaris); test: Inhibition of recombinant DGL expressed in transgenic maize assessed as hydrolysis of trybutyrin emulsion at 10 to 40 molar excess after 30 mins in absence of NaTDC
[24] = target: T4, Gastric triacylglycerol lipase (Canis lupus familiaris); test: Inhibition of recombinant DGL expressed in transgenic maize after 30 mins in presence of NaTDC
[25] = target: T3, Pancreatic lipase-related protein 2 (Cavia porcellus); test: Inhibition of recombinant GPLRP2 expressed in Aspergillus oryzae after 30 mins in presence of NaTDC
[26] = target: T1, Pancreatic triacylglycerol lipase (Homo sapiens); test: Inhibition of recombinant HPL expressed in Pichia pastoris after 30 mins in presence of NaTDC
[27] = target: T3, Pancreatic lipase-related protein 2 (Cavia porcellus); test: Inhibition of recombinant GPLRP2 expressed in Aspergillus oryzae assessed as residual activity at 40 molar excess after 30 mins by mass spectrophotometric analysis in presence of NaTDC
[28] = target: T5, Pancreatic lipase-related protein 2 (Homo sapiens); test: Inhibition of recombinant HPLRP2 expressed in Pichia pastoris assessed as residual activity at 40 molar excess after 30 mins by mass spectrophotometric analysis in presence of NaTDC
[29] = target: T4, Gastric triacylglycerol lipase (Canis lupus familiaris); test: Inhibition of recombinant DGL expressed in transgenic maize assessed as residual activity at 40 molar excess after 30 mins by mass spectrophotometric analysis in presence of NaTDC
[30] = target: T2, Bile salt-activated lipase (Homo sapiens); test: Inhibition of human pancreatic CEH assessed as residual activity at 40 molar excess after 30 mins by mass spectrophotometric analysis

SMILES	inhibition [1]	T1/2 [2] [min]	inhibition [3] [%]	inhibition [4] [%]	inhibition [5] [%]	T1/2 [6] [min]	inhibition [7] [%]	T1/2 [8] [min]	inhibition [10] [%]	inhibition [11]	XI50 [12] [molar excess]	XI50 [13] [molar excess]	inhibition [14] [%]	XI50 [15] [molar excess]	inhibition (Sus scrofa) [%]	inhibition [17] [%]	inhibition [18] [%]	inhibition [19] [%]	T1/2 [20] [min]	T1/2 [21] [min]	also measured
CCCCCCCCCCC[C@@H](C[C@@H]1OC(=O)[C@H]1CCCCCC)OC(=O)[C@H](CC(C)C)NC=O	85%	0.52	87.3	80.1	83.6	0.59	83.6	0.4	51.5	77.2%	0.78	0.77	82.7	2.76	93.1	85.5	86.3	56.3	1.66	0.55	inhibition [9]: 60%; T1/2 [16]: 1.64 min; inhibition [22]: 90.9%
COc1nn(-c2ccc(Oc3ccccc3)cc2)c(=O)o1	20%	1.43	23.6	77.1	78.6	9.31	66	> 60	12.4	inactive	0.93	1.04	13.3	57.6	90.6	72.9	88.8	92.7	1.84	2.06	inhibition [23]: 65%; inhibition [9]: Active; XI50 [24]: 7.12 molar excess; XI50 [25]: > 40 molar excess; T1/2 [16]: > 120 min; XI50 [26]: > 400 molar excess; inhibition [22]: 87.1%
COc1nn(-c2cccc(Oc3ccccc3)c2)c(=O)o1	42.7%	0.9	90.4	54.5	84.7	1.88	63.7	0.46	10.9	26.3%	1.48	0.62	80.1	26.5	89.7	85.1	81.2	81.9	1.69	0.78	inhibition [27]: Active; inhibition [23]: 65%; inhibition [9]: Active; XI50 [24]: 8.33 molar excess; inhibition [28]: Active; XI50 [25]: 0.77 molar excess; T1/2 [16]: > 120 min; XI50 [26]: > 400 molar excess; inhibition [29]: Active; inhibition [30]: Active; inhibition [22]: 87.7%
COc1nn(-c2ccccc2)c(=O)o1	inactive	1	86	71.6	81.3	> 60	49.9	9.97	1.4	inactive	0.77	2.27	77.6	> 400	34.1	10.7	92.7	6.6	> 60	14.6	XI50 [24]: > 40 molar excess; XI50 [25]: 0.74 molar excess; inhibition [16]: inactive; XI50 [26]: inactive; inhibition [22]: 35.8%
